Laboratory results reported in article PMC3312006 (2011).
pIC50: −log10 of the molar value.

Key:
[1] = target: T1, histone acetyltransferase p300 (KAT3B) (Homo sapiens, UniProt Q09472); test: in vitro filter-binding HAT assay with […]acetyl-CoA and HeLa core histones; assay type: biochemical
T1 sequence (Q09472 1066-1707): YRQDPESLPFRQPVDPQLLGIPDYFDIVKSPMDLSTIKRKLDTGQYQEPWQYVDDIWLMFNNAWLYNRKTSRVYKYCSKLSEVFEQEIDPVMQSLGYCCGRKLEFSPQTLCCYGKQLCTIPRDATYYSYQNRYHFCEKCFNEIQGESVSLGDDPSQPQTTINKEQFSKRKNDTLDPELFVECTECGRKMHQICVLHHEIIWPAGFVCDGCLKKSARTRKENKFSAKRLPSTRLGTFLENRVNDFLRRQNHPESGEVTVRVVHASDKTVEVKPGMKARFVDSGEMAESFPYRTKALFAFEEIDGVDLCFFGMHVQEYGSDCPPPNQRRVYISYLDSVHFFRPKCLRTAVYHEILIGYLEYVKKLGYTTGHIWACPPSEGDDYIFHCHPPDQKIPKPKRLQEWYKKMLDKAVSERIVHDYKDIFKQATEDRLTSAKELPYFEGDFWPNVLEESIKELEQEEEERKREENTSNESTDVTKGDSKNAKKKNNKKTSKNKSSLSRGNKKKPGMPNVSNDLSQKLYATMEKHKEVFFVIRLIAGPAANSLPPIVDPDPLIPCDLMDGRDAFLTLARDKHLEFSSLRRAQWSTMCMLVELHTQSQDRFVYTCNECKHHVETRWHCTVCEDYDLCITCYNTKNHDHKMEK

[2] = target: T1, histone acetyltransferase p300 (KAT3B); test: biochemical

SMILES | pIC50 [1] | pIC50 [2]
CCCCC[C@H](O)/C=C/[C@H]1C(=O)C=C[C@@H]1C/C=C\CCCC(=O)O [PGJ2] | < 5.70 | –
CCCCC[C@H](O)C/C=C1/C(=O)C=C[C@@H]1C/C=C\CCCC(=O)O [Δ^12-PGJ2] | – | ~6.12
